Assay results reported in patent US11382907B2, “Methods and compositions for treating aging-associated impairments using CCR3-inhibitors” (Alkahest, Inc., priority 2017, dated 2022).
“Also recorded” adds a separate entry of the source.

What was measured:
[1] = Tissue distribution of [14C]-radiolabeled Compound 1 (LSC, whole body autoradiography); assay type: in vivo, C57BL/6JOlaHsd mice; conditions: 10 mg/kg oral, [14C]-label; 1, 24, 168 hours
Method: The distribution of Compound 1 in mouse tissues was determined after oral administration of which was [^14C]-radiolabeled (“Labeled Compound”) to male pigmented C57BL/6JOlaHsd mice (Harlan Labs, BV). The Labeled Compound was administered at 10 mg/kg of body weight, corresponding to 17 μmol/kg. One animal was sacrificed after 1, 24, and 168 hours post-administration. Blood, plasma, and eye radioactivity concentrations were measured using liquid scintillation counting (LSC). Tissue and organ concentrations were determined by whole body autoradiography technique (QWBA). […]
The following sections were taken at different levels through the embedded animal, and whole body sections selected at 5-7 levels in order to allow for quantitative evaluation of radioactivity: adrenal glands; blood; bone marrow; brain; eye (lens); epididymis; fat (white and brown); Harderian gland; heart; kidneys; liver; lung; muscle; pituitary; pancreas; prostate, spinal cord; spleen salivary gland; skin; testis; thyroid; thymus; uveal tract. […]
FIG. 7 depicts a chart of values reporting the area under the curve (AUC) for all three time points, and quantifies each tissue's exposure to the Labeled POI after administration of the compound.

[2] = system: three-month-old C57 mice treated with LPS; assay: Y maze test in mice given daily LPS; assay type: in vivo; conditions: 3-month-old mice; daily LPS 0.5 mg/kg IP; 30 mg/kg PO BID, after 3 weeks
Method: A large Y-maze test assesses short-term memory of the familiarity of a specific context. Mice are brought to the experimental room for at least 30 min of acclimation to the experimental room conditions (dim lighting) prior to testing. For the initial training trial, the mouse is placed at the end of one arm of a large Y-maze designated “start arm” (arm length: 15 inches). The third arm of the maze is blocked off, allowing the mouse to explore two of the three arms freely (“start arm” and “familiar arm”) for 5 min. Each arm contains spatial cues. One hour later, the mouse is placed back into the maze in the “start arm” and allowed to explore all three arms with the third arm unblocked (“novel arm”). Movements in and out of each arm are tracked using automated tracking software (CleverSys). Testing is performed under dim lighting, and the apparatus is cleaned with 70% ethanol between trials.
Three-month-old C57 mice were given daily doses of lipopolysaccharide (LPS) 0.5 mg/kg IP to induce inflammation and treated with Compound 1 for up to 4 weeks. […]

aged C57Bl/6 mice = assay: Open Field test in aged mice; assay type: in vivo; conditions: 23-month-old mice; 30 mg/kg SQ BID 21 days, tested three weeks later
Method: Open Field is used to evaluate general locomotor activity and exploratory behavior in a novel environment. Mice are brought to the experimental room for at least 30 min for acclimation to the experimental room conditions (dim lighting) prior to testing. The testing arena consists of a 50 cm×50 cm square arena. Mice are placed in the center of an arena and tracked for 15 minutes. Time spent in the peripheral and centers zones is analyzed, along with rearing behavior. 70% ethanol is used to clean all surfaces between trials.
23-month-old C57Bl/6 mice were dosed with either vehicle control or Compound 1 subcutaneously twice daily for 21 days. Three weeks later, mice were subjected to behavior testing, and sacrificed the day following the last behavior test.

[3] = system: CD68+ activated microglia; assay: IHC of CD68+ activated microglia in hippocampus of aged mice; assay type: in vivo, C57Bl/6 mice; conditions: 23-month-old mice, 30 mg/kg SQ BID 21 days
From the text: Mice were taken down on the day following the end of behavior testing. Anesthesia was induced by 2,2,2-tribromoethanol and mice were subsequently perfused with 0.9% saline trans-cardially. The brains were dissected and cut sagitally in two even halves. One half was snap frozen for later use in dry ice, and the other was fixed in 4% paraformaldehyde in PBS for use in immunohistochemistry. After two days of fixation, the hemibrains were transferred to a 30% sucrose in PBS solution and changed after two days. Hemibrains were sectioned at 30 um on a microtome at −22° C. Brain sections were stored in cryoprotectant media at −20° C. until needed for staining. Blocking was done on free floating sections in the appropriate serum at 10% serum in PBST 0.5%. Primary antibodies were incubated overnight at 4 C. For light microscopy, the following antibodies were used in the given concentrations: DCX, 1:200, Santa Cruz BioTech, CD68, 1:1000. AbD Serotec. Secondary biotinylated antibodies were applied the next day at a concentration of 1:300. Staining visualization was achieved by reaction with the ABC kit (Vector) and diaminobenzidine (Sigma). Dehydration of the mounted slides was achieved using ethanol and xylene dips. Images were acquired on a Leica light microscope at 5× magnification.
23-month-old C57Bl/6 mice were dosed with either vehicle control or Compound 1 subcutaneously twice daily for 21 days. […]

## Cc1cc(C(=O)N(C)C)cc(NC(=O)[C@H]2CCC(=O)N2C2CCN(Cc3ccc(Cl)c(C)c3)CC2)n1 [Compound 1]
[1]
  crossing of the blood-brain barrier (tissue AUC of radioactivity): does not cross the blood-brain barrier (BBB) at significant levels
[2]
  Y maze preference for the novel arm: showed a significant preference for the novel arm
Aged C57Bl/6 mice
  Open Field distance travelled: strong trends towards improvement
  Open Field velocity: strong trends towards improvement
[3]
  CD68+ activated microglia in the hippocampus: strong trend towards decreased microgliosis; also recorded: trend lower
